pIC50: −log10 of the molar value. Where a SMILES comes first, the peptide text is derived from it. [ ]: non-standard residue; d: D form. Dolaproine = CO[C@@H]([C@@H]1CCCN1)[C@@H](C)C(=O)O; Dil = CC[C@H](C)[C@H](NC)[C@@H](CC(=O)O)OC; NMeV = CN[C@H](C(=O)O)C(C)C
Tests used:
[1] = tested on: SKOV-3 ovarian cancer cell; test: In vitro cytotoxicity of dolastatin derivatives (PrestoBlue cell viability); format: cell-based, Human; conditions: for pIC50: concentration range wherein SKOV-3 cell viability falls to 50%, 96 h, measured range 1 nM-10 μM; for cytotoxicity compared to 1 (MMAF): SKOV-3, applied to cell culture medium; for cytotoxicity compared to 2 (monomethyldolastatin 10): SKOV-3
Protocol: Human ovarian cancer cell line SKOV-3 was from the ATCC (Manassas, Va., USA). The cells were grown according to the manufacturer's recommendations. Log phase cultures were collected and 5000 cells/well were seeded onto 96-well plates and incubated for 24 h. Serial dilutions of test molecules from a stock solution of 100 μM in 10% DMSO were made in cell culture medium, added to cells (maximum concentration of dimethylsulphoxide was 1%) and cultures were incubated further for 96 h. Cell viability was evaluated using PrestoBlue cell viability reagent (Life Technologies, Carlsbad, Calif., USA) according to the manufacturer's instructions. Cells were incubated for 2 h, and dye reduction was measured by absorbance at 570 nm. The compounds were assayed 1-2 times in triplicate.
Results of an exemplary assay are shown in FIG. 1, in which compound numbering is according to Example 1. The results are expressed in Table 1 as IC50 values of the analyzed derivatives.

[2] = Hydrophilicity by reverse-phase HPLC elution; format: physicochemical; conditions: C-18 reverse-phase column, eluted at lower ACN concentration
Description: The products were purified by Äkta purifier 10 (GE Healthcare) HPLC instrument with Gemini-NX-5u C-18 reverse-phase column (4.6×250 mm, 110 Å (Phenomenex)) eluted with ACN gradient in aqueous ammonium hydrogen carbonate or aqueous trifluoroacetic acid.

**Q.** With `CC[C@H](C)[C@@H]([C@@H](CC(=O)N1CCC[C@H]1[C@H](OC)[C@@H](C)C(=O)N[C@@H](Cc1ccccc1)C(=O)O)OC)N(C)C(=O)[C@@H](NC(=O)[C@@H](NC)C(C)C)C(C)C` [Compound 1, Monomethylauristatin F, reference compound] (H-[NMeV]V[Dil][Dolaproine]F-OH) as the compound, how does the pIC50 [1] read?
**A.** 6.00 to 7.00

**Q.** With `CN[C@H](C(=O)N[C@H](C(=O)N(C)[C@@H](C(C)C)[C@@H](CC(=O)N1CCC[C@H]1[C@H](OC)[C@@H](C)C(=O)N[C@@H](Cc1ccccc1)c1nccs1)OC)C(C)C)C(C)C` [Compound 2, monomethyldolastatin 10, reference compound] as the compound, how does the pIC50 [1] read?
**A.** > 9.00

**Q.** With `CCC(C)C(C(CC(=O)N1CCCC1C(OC)C(C)C(=O)NC(Cc1ccccc1)C(=O)O)OC)N(C)C(=O)C(NC(=O)C(C(C)C)N(C)CCC(O)C(O)C(O)CO)C(C)C` [Compound 5, N-(2-deoxy-D-glucosyl)-MMAF] as the compound, how does the pIC50 ([1]; Homo sapiens, SK-OV-3) read?
**A.** 6.00

**Q.** And the “cytotoxicity compared to 1 (MMAF)” value [1]?
**A.** equally or only slightly less cytotoxic

**Q.** And the “hydrophilicity compared to MMAF (1) and N-(3-butynyl)-MMAF (6)” value [2]?
**A.** more hydrophilic

**Q.** Which results are given for `C#CCCN(C)C(C(=O)NC(C(=O)N(C)C(C(C)CC)C(CC(=O)N1CCCC1C(OC)C(C)C(=O)NC(Cc1ccccc1)C(=O)O)OC)C(C)C)C(C)C` (stereo not drawn) [Compound 6, N-(3-butynyl)-MMAF]?
**A.** pIC50 ([1]; Homo sapiens, SK-OV-3): > 9.00; cytotoxicity compared to 1 (MMAF) [1]: more cytotoxic

**Q.** With `CCC(C)C(C(CC(=O)N1CCCC1C(OC)C(C)C(=O)NC(Cc1ccccc1)C(=O)O)OC)N(C)C(=O)C(NC(=O)C(C(C)C)N(C)CC(O)C(O)C(O)C(O)COC1OC(CO)C(O)C(O)C1O)C(C)C` [Compound 8, N-[6-O-(β-D-galactopyranosyl)-D-galactosyl]-MMAF] as the compound, how does the pIC50 ([1]; Homo sapiens, SK-OV-3) read?
**A.** 5.00 to 6.00

**Q.** And the “cytotoxicity compared to 1 (MMAF)” value [1]?
**A.** less cytotoxic

**Q.** With `CCC(C)C(C(CC(=O)N1CCCC1C(OC)C(C)C(=O)NC(Cc1ccccc1)C(=O)O)OC)N(C)C(=O)C(NC(=O)C(C(C)C)N(C)CC(O)C(O)C(OC1OC(CO)C(OC2OC(CO)C(O)C(O)C2O)C(O)C1O)C(O)CO)C(C)C` [Compound 10, N-{4-O-[4-O-(α-D-galactopyranosyl)-β-D-galactopyranosyl]-D-glucosyl}-MMAF] as the compound, how does the pIC50 ([1]; Homo sapiens, SK-OV-3) read?
**A.** 5.00 to 6.00

**Q.** What does the source list for `CCC(C)C(C(CC(=O)N1CCCC1C(OC)C(C)C(=O)NC(Cc1ccccc1)C(=O)O)OC)N(C)C(=O)C(NC(=O)C(C(C)C)N(C)CC(O)C(O)C(OC1OC(CO)C(O)C(OC2(C(=O)O)CC(O)C(NC(C)=O)C(C(O)C(O)CO)O2)C1O)C(O)CO)C(C)C` [Compound 11, N-{4-O-[3-O-(α-N-acetylneuraminyl)-β-D-galactopyranosyl]-D-glucosyl}-MMAF]?
**A.** cytotoxicity compared to 1 (MMAF) [1]: less cytotoxic; pIC50 [1]: < 5.00

**Q.** With `CCC(C)C(C(CC(=O)N1CCCC1C(OC)C(C)C(=O)NC(Cc1ccccc1)c1nccs1)OC)N(C)C(=O)C(NC(=O)C(C(C)C)N(C)CC(O)C(O)C(O)C(O)CN=[N+]=[N-])C(C)C` [Compound 13, N-(6-azido-6-deoxy-D-galactosyl)-dolastatin 10] as the compound, how does the pIC50 ([1]; Homo sapiens, SK-OV-3) read?
**A.** > 9.00

**Q.** What about the “cytotoxicity compared to 2 (monomethyldolastatin 10)” value [1] of the same compound?
**A.** equally or only slightly less cytotoxic

**Q.** With `CCC(C)C(C(CC(=O)N1CCCC1C(OC)C(C)C(=O)NC(Cc1ccccc1)C(=O)O)OC)N(C)C(=O)C(NC(=O)C(C(C)C)N(C)C(=O)CCCC(=O)O)C(C)C` (stereo not drawn) [Compound 14b, N-glutaryl-MMAF] as the compound, how does the pIC50 ([1]; Homo sapiens, SK-OV-3) read?
**A.** 6.00 to 7.00

**Q.** And the “cytotoxicity compared to 2 (monomethyldolastatin 10)” value [1]?
**A.** equally or only slightly less cytotoxic

**Q.** With “N-(6-O-propargyl-D-galactosyl)-MMAF [Compound 3]” as the compound, how does the pIC50 [1] read?
**A.** 5.00 to 7.00

**Q.** With “N-(6-azido-6-deoxy-D-galactosyl)-MMAF [Compound 4]” as the compound, how does the pIC50 [1] read?
**A.** 6.00 to 7.00

Source: patent publication US10973922B2, “Glycoprotein-toxic payload conjugates” (GLYKOS FINLAND OY, priority 2013, dated 2021)
